Results on one compound are retold here after patent publication US20230293530A1, “AGENTS FOR SENSITIZING SOLID TUMORS TO TREATMENT” (Yeda Research and Development Co. Ltd., priority 2020, published 2023).

The subject of experiment [1] is 4T1 breast cancer cells. The experiment is described as follows: DNA (whole-exome) sequencing analysis of mutational bias. As to conditions: 4T1 cells, 300 µM mizoribine, 24 h. Format: cell-based, murine. The protocol:
B) The purine/pyrimidine ratio is increased upon glucose deprivation in murine breast cancer cells. 4T1 cells were grown in the absence of glucose for 24h (baseline) and 48h and quantified by liquid chromatography-mass spectrometry (LC-MS). Nucleotide levels were measured in µg/ml and corrected for protein concentration. Purine/pyrimidine ratio was calculated by dividing (AMP+GMP) by (UMP+CMP) relative concentrations. C) ASS1 inhibition decreases the purine/pyrimidine ration under glucose deprivation. 4T1 cells were grown in the presence or absence of glucose for 48 h and analysed as in 1B. […] Cells were grown and treated as in 5B. […] 4T1 cells were grown either with or without 300 µM mizoribine for 24 h. Nucleotide levels were measured by LC-MS. […] Each experiment was conducted with biological and technical replicates and repeated at least three times. […] Nucleotide levels were measured as described below by LC-MS. Purine/pyrimidine ratio was calculated by dividing (AMP+GMP+ATP+GTP) concentration by (UMP+CMP+TMP+UTP+CTP+TTP) concentration before and after methotrexate. […]
4T1 cells treated as outlined above were followed by lysis and DNA isolation using DNeasy blood and tissue kit (Quiagen). […] Purine to pyrimidine (R>Y) and pyrimidine to purine (Y>R) mutations on the sense strand were counted and pooled per condition to achieve sufficient values for statistical analysis. […]

The next experiment concerns LMP-7 immunoproteasome. Briefly: Western blot for LMP-7 immunoproteasome in 4T1 cells. Format: cell-based, murine. Conditions: 300 µM mizoribine, 24 hours. The source says:
(§1) C) ASS1 mRNA expression levels and NDNO scores are associated with non-response to anti-PD1 therapy in non-small cell lung cancer (NSCLC) (7 responders and 14 nonresponders). D) Proteomic-based NDNO scores associate with lower hydrophobicity of peptide repertoire (Wilcoxon ranksum P<0.05) in a (CPTAC3) lung adenocarcinoma cohort. NDNO scores were used to determine the top tertile (red; n=36) and bottom tertile (blue; n=36); Proteomic NDNO scores denote the ratio of NNDO scores of the tumor vs the matched normal sample (Methods). Hydrophobicity scores were determined by R library Peptides using the metric from Janin et al^2, where the hydrophobicity of each sample’s peptide repertoire denotes the mean hydrophobicity of all its peptides (Methods). E) 4T1 breast cancer cells were treated with 300 µM mizoribine for 24 hours and analysed by western for LMP-7 immunoproteasome (Left panel). Quantification of the western is shown on the right panel. […] Tumor size was calliper-measured on the designated days (upper panel) and at sacrifice on day 14 (lower panel, p = 0.0476 using student’s t-test). […] Human IFNγ was measured using ELISA in wells containing cultured CD8+T-cells and PDX explants from two patients (Pat#1, LEP 19 and Pat#2, LEP 20) with metastatic NSCLC on responsive to anti-PD1. […]
(Immunoblotting shows a protein as a band on a membrane.)

Experiment [2] relates to 4T1 breast cancer cells. The experiment is described as follows: Syngeneic mouse breast cancer model, 4T1 cells pre-treated in vitro with mizoribine. Format: in vivo, BALB/c female mice.
Text: as §1

As to `NC(=O)c1ncn([C@@H]2O[C@H](CO)[C@@H](O)[C@H]2O)c1O` [Mizoribine, mizoribine], in the experiment on 4T1 breast cancer cells [1], the “mutational bias by DNA sequencing analysis” value is “pyrimidine mutational bias”. Further, the “immunoproteasome LMP-7 expression” value in the experiment with LMP-7 immunoproteasome was “higher immunoproteasome LMP-7 expression”. In addition, the tumor growth entry in the experiment on 4T1 breast cancer cells [2] (4T1 cells treated with mizoribine in vitro before injection into mammary pads, mizoribine alone) is reported as “restricted tumor growth”. Moreover, in the experiment on 4T1 breast cancer cells [2] (4T1 cells treated with mizoribine in vitro before injection, anti-PD1 intraperitoneal, mice unresponsive to anti-PD1), the “tumor growth response in combination with anti-PD1” value was “more significant response”.
